Experiment [1] has as its system leptin, beta endorphin, cortisol. The following applies: humans with alcohol dependence; cited from earlier work.
The next experiment has as its system ERK. The experiment in a line: striatum pERK/ERK in WT and fmr1 KO mice treated with acamprosate. Format: in vivo. Further details: ERK / Total: unit not given here. The source says: FIG. 4. Bar graph of pERK activity measured in WT and fmr1 KO mice treated with acamprosate
Referring now to FIG. 4. A summary of data collected using mouse models for ASD to measure the effect of acamprosate on the levels of ERK activity in wild-type and fmr1 (fragile X gene) Knock Out mice.

Where [2] appears, read: STRIATUM, KO Acam, individual mice, listed as Acam.

Where “and” joins values, the source holds several entries; their conditions need not be identical. Equal values may be shown once.

We go through one compound from patent publication US11733243B2, “Use of acamprosate to modulate ERK1/2 activation in animal models for FXS and ASD and individuals diagnosed with FXS and ASD” (Indiana University Research and Technology Corporation, priority 2013, dated 2023).

Take `CC(=O)NCCCS(=O)(=O)O` [Acamprosate, 3-Acetamidopropane-1-sulfonic acid]: the hormone levels result in experiment [1] was “lowers levels of several hormones: leptin, beta endorphin, cortisol”. For the same compound, in the experiment on ERK (setting [2]), the “A = ERK/Total” value was 1.31 and 1.57 and 2.78 and 2.43 and 2.19 and 2.25 and 1.71; the ERK was 24161 and 32570 and 26811 and 27464 and 25163 and 21441 and 25808; the Total is 18506 and 20784 and 9659 and 11290 and 11468 and 9535 and 15062; the pERK is 26311 and 37905 and 34961 and 25699 and 25451 and 19381 and 25020. In the experiment with ERK (setting [2]), the pERK/A is 20152.78 and 24188.44 and 12595.14 and 10564.44 and 11599.26 and 8618.90 and 14602.11. The pERK/A with ERK (STRIATUM, KO Acam, individual mice, listed as acamp) was 20152.78 and 24188.44 and 12595.14 and 10564.44 and 11599.26 and 8618.90 and 14602.11. Also, the “pERK (group mean of pERK/A)” value with ERK (STRIATUM, KO acamp, WT sal 14455.22, KO sal 21048.75, T Test 0.96 vs WT, 0.20 vs KO sal) is on record as 14617.30. Also, the “effect on ERK activation in fmr1 knockout animals” value in the experiment on ERK (fmr1 knockout animals) was “restores activated ERK to wild-type levels”.
